Results: patent US6667387B1, “HCV core peptides” (priority 1992, dated 2003)
Ends that are not written are not given here. * marks the point of attachment. Biotin = O=C1N[C@H]2[C@H](CS[C@H]2CCCCC(=O)*)N1

Assays:
[1] = tested on: antibodies in sera from HCV-seropositive donors; test: ELISA with HCV antibody-positive sera (biotinylated peptides on streptavidin- or avidin-coated plates, unbiotinylated peptides coated directly); type: binding, human
Outline: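 Read-out is OD at 450 nm after HRP goat anti-human Ig and TMB development, following 1 h at 37° C. with seropositive or negative sera diluted 1:100 (or 20-fold). Antigen was either unbiotinylated peptide adsorbed on plastic (pH 9.6 carbonate, 2–5 or 3 μg/ml) or biotinylated peptide at 1 μg/ml captured on streptavidin-coated wells, with casein blocking.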

[2] = ELISA with seronegative / negative control sera (specificity); type: binding, human
Outline: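 Specificity readout is OD at 450 nm (HRP goat anti-human Ig, TMB/H2O2, sulfuric acid stop), with ≥0.250 counted positive. Seronegative donor sera (typically 1:100, 1 h, 37° C) were applied to casein-blocked wells coated with peptide directly or via streptavidin capture of biotinylated peptide.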

Substance: ETWKKPDYEPPVVHGCPLPP
- optical density (450 nm) ([1]; Table 4G, serum 1, 20-fold dilution): 2.523
- optical density (450 nm) ([1]; Table 4G, serum 33, 20-fold dilution): 1.463
- optical density (450 nm) ([1]; Table 4G, serum 39, 20-fold dilution): 0.068
- optical density (450 nm) ([1]; Table 4G, serum 47, 20-fold dilution): 2.117
- optical density (450 nm) ([1]; Table 4G, serum 79, 20-fold dilution): 1.739
- optical density (450 nm) ([1]; Table 4G, serum 83, 20-fold dilution): 1.121
- optical density (450 nm) ([1]; Table 4G, serum 88, 20-fold dilution): 0.972
- optical density (450 nm) ([1]; Table 4G, serum 89, 20-fold dilution): 2.079
- optical density (450 nm) ([1]; Table 4G, serum 91, 20-fold dilution): 2.202
- optical density (450 nm) ([1]; Table 4G, serum 99, 20-fold dilution): 1.253
- optical density (450 nm) ([1]; Table 4G, serum 104, 20-fold dilution): 1.864
- optical density (450 nm) ([1]; Table 4G, serum 105, 20-fold dilution): 1.522
- optical density (450 nm) ([1]; Table 4G, serum 110, 20-fold dilution): 1.981
- optical density (450 nm) ([1]; Table 4G, serum 111, 20-fold dilution): 1.363
- optical density (450 nm) ([1]; Table 4G, serum 112, 20-fold dilution): 1.172
- optical density (450 nm) ([1]; Table 4G, serum 116, 20-fold dilution): 1.534
- optical density (450 nm) ([1]; Table 4G, serum 120, 20-fold dilution): 1.599
- optical density (450 nm) ([1]; Table 5, sample 8242 (positive), peptide concentration 0.01 micrograms per milliliter, listed as Unbiotinylated HCV peptide XVIII): 0.048
- optical density (450 nm) ([1]; Table 5, sample 8242 (positive), peptide concentration 0.03 micrograms per milliliter, listed as Unbiotinylated HCV peptide XVIII): 0.049
- optical density (450 nm) ([1]; Table 5, sample 8242 (positive), peptide concentration 0.1 micrograms per milliliter, listed as Unbiotinylated HCV peptide XVIII): 0.047
- optical density (450 nm) ([1]; Table 5, sample 8242 (positive), peptide concentration 0.3 micrograms per milliliter, listed as Unbiotinylated HCV peptide XVIII): 0.048
- optical density (450 nm) ([1]; Table 5, sample 8242 (positive), peptide concentration 1.0 micrograms per milliliter, listed as Unbiotinylated HCV peptide XVIII): 0.049
- optical density (450 nm) ([1]; Table 5, sample 8242 (positive), peptide concentration 3.0 micrograms per milliliter, listed as Unbiotinylated HCV peptide XVIII): 0.053
- optical density (450 nm) ([1]; Table 5, sample 8243 (positive), peptide concentration 0.01 micrograms per milliliter, listed as Unbiotinylated HCV peptide XVIII): 0.053
- optical density (450 nm) ([1]; Table 5, sample 8243 (positive), peptide concentration 0.03 micrograms per milliliter, listed as Unbiotinylated HCV peptide XVIII): 0.053
- optical density (450 nm) ([1]; Table 5, sample 8243 (positive), peptide concentration 0.1 micrograms per milliliter, listed as Unbiotinylated HCV peptide XVIII): 0.051
- optical density (450 nm) ([1]; Table 5, sample 8243 (positive), peptide concentration 0.3 micrograms per milliliter, listed as Unbiotinylated HCV peptide XVIII): 0.054
- optical density (450 nm) ([1]; Table 5, sample 8243 (positive), peptide concentration 1.0 micrograms per milliliter, listed as Unbiotinylated HCV peptide XVIII): 0.053
- optical density (450 nm) ([1]; Table 5, sample 8243 (positive), peptide concentration 3.0 micrograms per milliliter, listed as Unbiotinylated HCV peptide XVIII): 0.057
- optical density (450 nm) ([1]; Table 5, sample 8318 (positive), peptide concentration 0.01 micrograms per milliliter, listed as Unbiotinylated HCV peptide XVIII): 0.048
- optical density (450 nm) ([1]; Table 5, sample 8318 (positive), peptide concentration 0.03 micrograms per milliliter, listed as Unbiotinylated HCV peptide XVIII): 0.047
- optical density (450 nm) ([1]; Table 5, sample 8318 (positive), peptide concentration 0.1 micrograms per milliliter, listed as Unbiotinylated HCV peptide XVIII): 0.047
- optical density (450 nm) ([1]; Table 5, sample 8318 (positive), peptide concentration 0.3 micrograms per milliliter, listed as Unbiotinylated HCV peptide XVIII): 0.047
- optical density (450 nm) ([1]; Table 5, sample 8318 (positive), peptide concentration 1.0 micrograms per milliliter, listed as Unbiotinylated HCV peptide XVIII): 0.045
- optical density (450 nm) ([1]; Table 5, sample 8318 (positive), peptide concentration 3.0 micrograms per milliliter, listed as Unbiotinylated HCV peptide XVIII): 0.051
- optical density (450 nm) ([1]; Table 5, sample 8326 (positive), peptide concentration 0.01 micrograms per milliliter, listed as Unbiotinylated HCV peptide XVIII): 0.051
- optical density (450 nm) ([1]; Table 5, sample 8326 (positive), peptide concentration 0.03 micrograms per milliliter, listed as Unbiotinylated HCV peptide XVIII): 0.051
- optical density (450 nm) ([1]; Table 5, sample 8326 (positive), peptide concentration 0.1 micrograms per milliliter, listed as Unbiotinylated HCV peptide XVIII): 0.049
- optical density (450 nm) ([1]; Table 5, sample 8326 (positive), peptide concentration 0.3 micrograms per milliliter, listed as Unbiotinylated HCV peptide XVIII): 0.053
- optical density (450 nm) ([1]; Table 5, sample 8326 (positive), peptide concentration 1.0 micrograms per milliliter, listed as Unbiotinylated HCV peptide XVIII): 0.053
- optical density (450 nm) ([1]; Table 5, sample 8326 (positive), peptide concentration 3.0 micrograms per milliliter, listed as Unbiotinylated HCV peptide XVIII): 0.052
- optical density (450 nm) ([2]; Table 4G, negative serum): 0.001
- optical density (450 nm) ([2]; Table 5, sample 1747 (negative), peptide concentration 0.01 micrograms per milliliter, listed as Unbiotinylated HCV peptide XVIII): 0.047
- optical density (450 nm) ([2]; Table 5, sample 1747 (negative), peptide concentration 0.03 micrograms per milliliter, listed as Unbiotinylated HCV peptide XVIII): 0.044
- optical density (450 nm) ([2]; Table 5, sample 1747 (negative), peptide concentration 0.1 micrograms per milliliter, listed as Unbiotinylated HCV peptide XVIII): 0.045
- optical density (450 nm) ([2]; Table 5, sample 1747 (negative), peptide concentration 0.3 micrograms per milliliter, listed as Unbiotinylated HCV peptide XVIII): 0.046
- optical density (450 nm) ([2]; Table 5, sample 1747 (negative), peptide concentration 1.0 micrograms per milliliter, listed as Unbiotinylated HCV peptide XVIII): 0.045
- optical density (450 nm) ([2]; Table 5, sample 1747 (negative), peptide concentration 3.0 micrograms per milliliter, listed as Unbiotinylated HCV peptide XVIII): 0.048
- optical density (450 nm) ([2]; Table 5, sample 1781 (negative), peptide concentration 0.01 micrograms per milliliter, listed as Unbiotinylated HCV peptide XVIII): 0.053
- optical density (450 nm) ([2]; Table 5, sample 1781 (negative), peptide concentration 0.03 micrograms per milliliter): 0.051
- optical density (450 nm) ([2]; Table 5, sample 1781 (negative), peptide concentration 0.1 micrograms per milliliter, listed as Unbiotinylated HCV peptide XVIII): 0.051
- optical density (450 nm) ([2]; Table 5, sample 1781 (negative), peptide concentration 0.3 micrograms per milliliter, listed as Unbiotinylated HCV peptide XVIII): 0.051
- optical density (450 nm) ([2]; Table 5, sample 1781 (negative), peptide concentration 1.0 micrograms per milliliter, listed as Unbiotinylated HCV peptide XVIII): 0.054
- optical density (450 nm) ([2]; Table 5, sample 1781 (negative), peptide concentration 3.0 micrograms per milliliter, listed as Unbiotinylated HCV peptide XVIII): 0.055

Substance: Bio-Gly-Gly-Gly-Ile-Trp-Gly-Cys-Ser-Gly-Lys-Leu-Ile-Cys-NH2 (Biotin-GGGIWGCSGKLIC-NH2; cysteine pairing not given here) [TM-HIV-1 Bio]
- optical density (450 nm) ([1]; Table 8, serum 8243 (HCV), Avidin): 0.108
- optical density (450 nm) ([1]; Table 8, serum 8247 (HCV), Avidin): 0.042
- optical density (450 nm) ([1]; Table 8, serum 8248 (HCV), Avidin): 0.043
- optical density (450 nm) ([1]; Table 8, serum 8269 (HCV), Avidin): 0.053
- optical density (450 nm) ([1]; Table 8, serum 8273 (HCV), Avidin): 0.053
- optical density (450 nm) ([1]; Table 8, serum 8278 (HCV), Avidin): 0.046
- optical density (450 nm) ([1]; Table 8, serum 8285 (HCV), Avidin): 0.134
- optical density (450 nm) ([1]; Table 8, serum 8290 (HCV), Avidin): 0.045
- optical density (450 nm) ([1]; Table 8, serum 8291 (HCV), Avidin): 0.048
- optical density (450 nm) ([2]; Table 1, serum 180, seronegative donor): 0.005
- optical density (450 nm) ([2]; Table 1, serum 194, seronegative donor): 0.000
- optical density (450 nm) ([2]; Table 1, serum 195, seronegative donor): 0.000
- optical density (450 nm) ([2]; Table 1, serum 204, seronegative donor): 0.001
- optical density (450 nm) ([2]; Table 6, serum 1733, seronegative blood donor): 0.000
- optical density (450 nm) ([2]; Table 6, serum 1747, seronegative blood donor): 0.000
- optical density (450 nm) ([2]; Table 6, serum 1784, seronegative blood donor): 0.000
- optical density (450 nm) ([2]; Table 8, serum 1782 (blood donor), Avidin): 0.052
- optical density (450 nm) ([2]; Table 8, serum 1784 (blood donor), Avidin): 0.044
- optical density (450 nm) ([2]; Table 8, serum 1785 (blood donor), Avidin): 0.046
- optical density (450 nm) ([2]; Table 8, serum 1794 (blood donor), Avidin): 0.124
